Laboratory results: ChEMBL document CHEMBL2163248, “Classification of inhibitors of hepatic organic anion transporting polypeptides (OATPs): influence of protein expression on drug-drug interactions” (J Med Chem, 2012)

Legend:
[1] = target: T1, Solute carrier organic anion transporter family member 1B1 (Homo sapiens, UniProt Q9Y6L6); test: Inhibition of human liver OATP1B1 expressed in HEK293 Flp-In cells assessed as reduction in E17-betaG uptake at 20 uM by scintillation counting; settings: hek293, 20 µM
T1 sequence (Q9Y6L6 whole entry): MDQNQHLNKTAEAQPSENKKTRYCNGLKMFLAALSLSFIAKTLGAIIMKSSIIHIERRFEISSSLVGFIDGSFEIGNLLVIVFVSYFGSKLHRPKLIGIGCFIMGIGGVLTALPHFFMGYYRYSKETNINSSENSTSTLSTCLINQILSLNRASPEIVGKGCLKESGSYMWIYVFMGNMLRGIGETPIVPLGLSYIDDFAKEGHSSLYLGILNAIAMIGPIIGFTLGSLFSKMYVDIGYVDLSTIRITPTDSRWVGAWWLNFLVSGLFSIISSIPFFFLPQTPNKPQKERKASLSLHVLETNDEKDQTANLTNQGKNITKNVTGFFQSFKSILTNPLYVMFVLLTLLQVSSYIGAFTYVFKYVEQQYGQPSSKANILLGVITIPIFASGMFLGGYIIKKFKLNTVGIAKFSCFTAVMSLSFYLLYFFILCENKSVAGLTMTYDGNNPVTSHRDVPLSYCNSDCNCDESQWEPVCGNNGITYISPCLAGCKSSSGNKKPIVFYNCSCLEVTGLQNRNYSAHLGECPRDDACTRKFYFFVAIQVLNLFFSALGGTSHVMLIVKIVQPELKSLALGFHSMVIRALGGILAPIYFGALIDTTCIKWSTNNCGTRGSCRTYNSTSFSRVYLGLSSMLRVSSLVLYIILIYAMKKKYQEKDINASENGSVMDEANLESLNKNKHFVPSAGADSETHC

[2] = target: T2, Solute carrier organic anion transporter family member 1B3 (Homo sapiens, UniProt Q9NPD5); test: Inhibition of human liver OATP1B3 expressed in HEK293 Flp-In cells assessed as reduction in [3H]E17-betaG uptake at 20 uM incubated for 5 mins by scintillation counting; settings: hek293, 5 min
T2 sequence (Q9NPD5 whole entry): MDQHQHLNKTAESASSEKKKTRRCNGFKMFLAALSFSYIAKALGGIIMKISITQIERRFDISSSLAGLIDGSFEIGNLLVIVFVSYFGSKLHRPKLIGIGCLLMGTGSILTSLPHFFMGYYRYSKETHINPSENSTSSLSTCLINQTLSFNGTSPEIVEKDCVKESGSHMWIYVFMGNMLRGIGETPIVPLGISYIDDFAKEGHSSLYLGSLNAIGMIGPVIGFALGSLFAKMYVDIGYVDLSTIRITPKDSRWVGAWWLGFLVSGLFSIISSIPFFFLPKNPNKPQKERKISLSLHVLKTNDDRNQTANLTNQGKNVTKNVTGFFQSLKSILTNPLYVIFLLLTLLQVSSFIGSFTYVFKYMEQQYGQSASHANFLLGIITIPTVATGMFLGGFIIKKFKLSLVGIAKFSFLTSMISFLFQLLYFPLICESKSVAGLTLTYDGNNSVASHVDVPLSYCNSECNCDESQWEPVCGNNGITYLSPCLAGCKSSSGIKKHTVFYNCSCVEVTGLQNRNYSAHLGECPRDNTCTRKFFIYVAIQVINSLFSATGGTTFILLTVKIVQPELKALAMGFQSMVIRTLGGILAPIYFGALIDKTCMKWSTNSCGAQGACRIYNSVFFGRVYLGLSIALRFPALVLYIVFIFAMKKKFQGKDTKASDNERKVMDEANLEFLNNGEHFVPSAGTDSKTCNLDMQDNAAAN

[3] = target: T3, Solute carrier organic anion transporter family member 2B1 (Homo sapiens, UniProt O94956); test: Inhibition of human liver OATP2B1 expressed in HEK293 Flp-In cells assessed as reduction in [3H]E3S uptake at 20 uM incubated for 5 mins by scintillation counting; settings: hek293, 5 min
T3 sequence (O94956 whole entry): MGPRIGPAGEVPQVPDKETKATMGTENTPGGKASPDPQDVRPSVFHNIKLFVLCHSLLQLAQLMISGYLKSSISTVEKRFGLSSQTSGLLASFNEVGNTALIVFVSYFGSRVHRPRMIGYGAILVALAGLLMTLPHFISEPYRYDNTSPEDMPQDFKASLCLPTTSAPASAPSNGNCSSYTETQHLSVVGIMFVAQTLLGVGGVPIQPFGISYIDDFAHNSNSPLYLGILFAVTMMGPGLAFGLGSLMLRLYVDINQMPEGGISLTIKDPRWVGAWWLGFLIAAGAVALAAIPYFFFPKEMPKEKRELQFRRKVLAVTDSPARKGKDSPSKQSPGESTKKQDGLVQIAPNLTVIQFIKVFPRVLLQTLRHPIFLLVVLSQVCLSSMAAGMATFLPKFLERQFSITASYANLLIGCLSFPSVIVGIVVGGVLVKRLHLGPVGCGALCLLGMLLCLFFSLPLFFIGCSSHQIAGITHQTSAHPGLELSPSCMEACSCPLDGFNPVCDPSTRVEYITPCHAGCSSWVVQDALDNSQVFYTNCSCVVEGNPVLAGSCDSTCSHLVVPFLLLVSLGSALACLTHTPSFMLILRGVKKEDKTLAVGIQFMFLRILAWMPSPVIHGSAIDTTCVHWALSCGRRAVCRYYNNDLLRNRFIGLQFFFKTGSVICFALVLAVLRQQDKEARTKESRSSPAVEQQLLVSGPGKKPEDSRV

Row | SMILES | INH [1] [%] | INH [2] [%] | INH [3] [%]
1 | CCOc1nc2cccc(C(=O)O)c2n1Cc1ccc(-c2ccccc2-c2nnn[nH]2)cc1 | 52.1 | 28.6 | 28.4
2 | CCCc1nc2c(C)cc(-c3nc4ccccc4n3C)cc2n1Cc1ccc(-c2ccccc2C(=O)O)cc1 | 109.4 | 91.5 | 94.9
3 | CCCCC(=O)N(Cc1ccc(-c2ccccc2-c2nnn[nH]2)cc1)[C@H](C(=O)O)C(C)C | 62.2 | 33.7 | 12.3
4 | CC(C)(C)NC(=O)[C@@H]1C[C@@H]2CCCC[C@@H]2CN1C[C@@H](O)[C@H](Cc1ccccc1)NC(=O)[C@H](CC(N)=O)NC(=O)c1ccc2ccccc2n1 | – | 6.6 | –
5 | CC(C)CN(C[C@@H](O)[C@H](Cc1ccccc1)NC(=O)O[C@H]1CCOC1)S(=O)(=O)c1ccc(N)cc1 | 79.3 | 16.3 | -3.4
6 | CN1CCC[C@@H]1Cc1c[nH]c2ccc(CCS(=O)(=O)c3ccccc3)cc12 | 31.7 | 2.8 | 0.4
7 | CCCc1nn(C)c2c(=O)[nH]c(-c3cc(S(=O)(=O)N4CCN(C)CC4)ccc3OCC)nc12 | 22.2 | 30.8 | 45.9
8 | CCC[C@@]1(CCc2ccccc2)CC(O)=C([C@H](CC)c2cccc(NS(=O)(=O)c3ccc(C(F)(F)F)cn3)c2)C(=O)O1 | 89.5 | 109 | 99
9 | C=C[C@H]1C[N+]2(C)CC[C@H]1C[C@@H]2[C@@H](O)c1ccnc2ccc(OC)cc12 | -6.1 | 21 | -10.3
10 | COc1cc2c(cc1OC)CN(CCc1ccc(NC(=O)c3cccc4c(=O)c5cccc(OC)c5[nH]c34)cc1)CC2 | 94.4 | 37.4 | 67.2
11 | COc1ccc2c3c([nH]c2c1)[C@H](CC(C)C)N1C(=O)[C@H](CCC(=O)OC(C)(C)C)NC(=O)[C@@H]1C3 | 59.3 | 24.2 | 78.8
12 | Cc1ccc(N(CC(=O)O)CC(=O)O)c(OCCOc2cc(-c3c4cc(Cl)c(=O)cc-4oc4cc(O)c(Cl)cc34)ccc2N(CC(=O)O)CC(=O)O)c1 | – | 88.5 | –
13 | CC(C)(C)NC(=O)[C@@H]1CN(Cc2cccnc2)CCN1C[C@@H](O)C[C@@H](Cc1ccccc1)C(=O)N[C@H]1c2ccccc2C[C@H]1O.O | 71.9 | 18.1 | 17.8
14 | CCOC(=O)[C@H](CCc1ccccc1)N[C@@H](C)C(=O)N1CCC[C@H]1C(=O)O | -7.5 | 4.1 | 19.7
15 | Cc1c(O)cccc1C(=O)N[C@@H](CSc1ccccc1)[C@H](O)CN1C[C@H]2CCCC[C@H]2C[C@H]1C(=O)NC(C)(C)C | 71.3 | 59.3 | 50
16 | COc1ccc(CCN(C)CCCC(C#N)(c2ccc(OC)c(OC)c2)C(C)C)cc1OC (stereo not given) | – | -9 | -62.6
17 | C[C@H]1O[C@H](O[C@H]2[C@H](O)[C@@H](O)[C@@H](O[C@H]3[C@H](O)[C@@H](O)C(O)O[C@@H]3CO)O[C@@H]2CO)[C@H](O)[C@@H](O)[C@@H]1N[C@H]1C=C(CO)[C@@H](O)[C@H](O)[C@H]1O (stereo not given in full) [ACARBOSE] | 14.9 | 17.7 | 0.1
18 | Nc1nc2c(ncn2COCCO)c(=O)[nH]1 [ACYCLOVIR] | 2.3 | -2 | -15.2
19 | Oc1ncnc2[nH]ncc12 [ALLOPURINOL] | -35.6 | 10.8 | 8.4
20 | NC12CC3CC(CC(C3)C1)C2 [AMANTADINE] | 26.4 | 10 | 17

Row | SMILES | INH [1] [%] | INH [2] [%] | INH [3] [%]
21 | Nc1ccc(C(=O)NCC(=O)O)cc1 [AMINOHIPPURIC ACID] | 30.1 | 23.7 | 27.4
22 | CN(C)CCC=C1c2ccccc2CCc2ccccc21 [AMITRIPTYLINE] | 10.5 | 22 | -8.9
23 | COc1ccc(CCN2CCC(Nc3nc4ccccc4n3Cc3ccc(F)cc3)CC2)cc1 [ASTEMIZOLE] | 22.3 | 24.4 | 58.9
24 | CNCCCN1c2ccccc2CCc2ccccc21 [DESIPRAMINE] | – | 3.2 | -4.4
25 | CN(CCOc1ccc(NS(C)(=O)=O)cc1)CCc1ccc(NS(C)(=O)=O)cc1 [DOFETILIDE] | 1 | 19.9 | –
26 | Nc1nc(=O)n([C@@H]2CS[C@H](CO)O2)cc1F [EMTRICITABINE] | 6.4 | 17.1 | –
27 | COc1cc([C@@H]2c3cc4c(cc3[C@@H](O[C@@H]3O[C@@H]5CO[C@@H](C)O[C@H]5[C@H](O)[C@H]3O)[C@H]3COC(=O)[C@H]23)OCO4)cc(OC)c1O [ETOPOSIDE] | – | – | 6.8
28 | CC(C)n1c(/C=C/C(O)CC(O)CC(=O)O)c(-c2ccc(F)cc2)c2ccccc21 (stereo not given) [FLUVASTATIN] | – | 76 | –
29 | COc1ccc(Cl)cc1C(=O)NCCc1ccc(S(=O)(=O)NC(=O)NC2CCCCC2)cc1 [GLYBURIDE] | – | 49.3 | 77.4
30 | O=C1CN(/N=C/c2ccc([N+](=O)[O-])o2)C(=O)N1 [NITROFURANTOIN] | – | -1.5 | 23.1
31 | CCCCC1C(=O)N(c2ccccc2)N(c2ccccc2)C1=O [PHENYLBUTAZONE] | – | 17 | –
32 | CCCN(CCC)S(=O)(=O)c1ccc(C(=O)O)cc1 [PROBENECID] | 35.2 | 22 | –
33 | C=C[C@H]1C[N@@]2CC[C@H]1C[C@@H]2[C@@H](O)c1ccnc2ccc(OC)cc12 [QUINIDINE] | 43.3 | – | –
34 | C=C[C@H]1C[N@@]2CC[C@H]1C[C@H]2[C@H](O)c1ccnc2ccc(OC)cc12 [QUININE] | 54 | – | –
35 | COC(=O)[C@H]1[C@H]2C[C@@H]3c4[nH]c5cc(OC)ccc5c4CCN3C[C@H]2C[C@@H](OC(=O)c2cc(OC)c(OC)c(OC)c2)[C@@H]1OC [RESERPINE] | 67.2 | – | 72.3
36 | CCC(C)(C)C(=O)O[C@H]1C[C@@H](C)C=C2C=C[C@H](C)[C@H](CC[C@@H]3C[C@@H](O)CC(=O)O3)[C@H]21 [SIMVASTATIN] | – | 29.3 | 47.4
37 | Nc1ccc(S(=O)(=O)Nc2ccnn2-c2ccccc2)cc1 [SULFAPHENAZOLE] | – | 0.7 | 17.1
38 | CC/C(=C(\c1ccccc1)c1ccc(OCCN(C)C)cc1)c1ccccc1 [TAMOXIFEN] | – | 28.5 | 11
39 | C[C@]12CC[C@H]3[C@@H](CCC4=CC(=O)CC[C@@]43C)[C@@H]1CC[C@@H]2O [TESTOSTERONE] | – | – | -175.1
